Assays:
Conditions in all cases: exposure time: 72 h
E31 [1] = patient-derived glioblastoma stem cells of proneural subtype; experiment: phenotypic distance (Euclidean, principal components) from DMSO controls (arbitrary units); higher = stronger morphological change
E28 [2] = patient-derived glioblastoma stem cells of classical subtype; experiment: as above
E57 [3] = patient-derived glioblastoma stem cells of mesenchymal subtype; experiment: as above
FT3469 [4] = normal neural stem cell line; experiment: as above
E21 [5] = patient-derived glioblastoma stem cells of mesenchymal subtype; experiment: as above
E13 [6] = patient-derived glioblastoma stem cells of classical subtype; experiment: as above
E34 [7] = patient-derived glioblastoma stem cells of proneural subtype; experiment: as above
E31 [8] = experiment: surviving fraction (nuclei count normalised to DMSO); higher = more cells surviving (less toxic)
E28 [9] = experiment: as above
E57 [10] = experiment: as above
FT3469 [11] = experiment: as above
E21 [12] = experiment: as above
E13 [13] = experiment: as above
E34 [14] = experiment: as above
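For phenotypic distance (Euclidean, principal components) from DMSO controls in this document: cell Painting imaging in 384-well plates, CellProfiler features reduced to at least 20 principal components, Euclidean distance versus same-plate DMSO vehicle wells (0.1% v/v), median over six images per well.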
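For surviving fraction (nuclei count normalised to DMSO) in this document: nuclei counted by high-content imaging of Hoechst-stained cells in laminin-coated 384-well plates, relative to 0.1% DMSO vehicle wells, with staurosporine as cell-death control.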

CC[C@@H]1C(=O)N(C)c2cnc(Nc3ccc(C(=O)N[C@H]4CC[C@H](N5CCN(CC6CC6)CC5)CC4)cc3OC)nc2N1C(C)C [Volasertib]
Conditions	phenotypic distance	surviving fraction
E13 [6], 4.1 nM	4.53	–
E13 [6], 12.3 nM	4.86	–
E13 [6], 37 nM	5.16	–
E13 [6], 111.1 nM	4.97	–
E13 [6], 333.3 nM	4.79	–
E13 [6], 1000 nM	5.82	–
E13 [6], 3000 nM	5.69	–
E13 [13], 4.1 nM	–	0.449
E13 [13], 12.3 nM	–	0.418
E13 [13], 37 nM	–	0.387
E13 [13], 111.1 nM	–	0.387
E13 [13], 333.3 nM	–	0.348
E13 [13], 1000 nM	–	0.301
E13 [13], 3000 nM	–	0.322
E21 [5], 4.1 nM	2.95	–
E21 [5], 12.3 nM	3.49	–
E21 [5], 37 nM	3.86	–
E21 [5], 111.1 nM	6.48	–
E21 [5], 333.3 nM	5.25	–
E21 [5], 1000 nM	6.04	–
E21 [5], 3000 nM	7.2	–
E21 [12], 4.1 nM	–	0.459
E21 [12], 12.3 nM	–	0.447
E21 [12], 37 nM	–	0.372
E21 [12], 111.1 nM	–	0.289
E21 [12], 333.3 nM	–	0.207
E21 [12], 1000 nM	–	0.205
E21 [12], 3000 nM	–	0.274
E28 [2], 4.1 nM	1.97	–
E28 [2], 12.3 nM	1.64	–
E28 [2], 37 nM	1.4	–
E28 [2], 111.1 nM	2.98	–
E28 [2], 333.3 nM	2.89	–
E28 [2], 1000 nM	3.11	–
E28 [2], 3000 nM	4.22	–
E28 [9], 4.1 nM	–	0.613
E28 [9], 12.3 nM	–	0.688
E28 [9], 37 nM	–	0.648
E28 [9], 111.1 nM	–	0.439
E28 [9], 333.3 nM	–	0.459
E28 [9], 1000 nM	–	0.386
E28 [9], 3000 nM	–	0.39
E31 [1], 4.1 nM	2.88	–
E31 [1], 12.3 nM	2.73	–
E31 [1], 37 nM	2.37	–
E31 [1], 111.1 nM	3.54	–
E31 [1], 333.3 nM	3.91	–
E31 [1], 1000 nM	4.92	–
E31 [1], 3000 nM	3.6	–
E31 [8], 4.1 nM	–	0.275
E31 [8], 12.3 nM	–	0.237
E31 [8], 37 nM	–	0.251
E31 [8], 111.1 nM	–	0.163
E31 [8], 333.3 nM	–	0.161
E31 [8], 1000 nM	–	0.148
E31 [8], 3000 nM	–	0.178
E34 [7], 4.1 nM	1.64	–
E34 [7], 12.3 nM	1.44	–
E34 [7], 37 nM	2.23	–
E34 [7], 111.1 nM	2.45	–
E34 [7], 333.3 nM	3.05	–
E34 [7], 1000 nM	4.15	–
E34 [7], 3000 nM	3.53	–
E34 [14], 4.1 nM	–	0.769
E34 [14], 12.3 nM	–	0.695
E34 [14], 37 nM	–	0.644
E34 [14], 111.1 nM	–	0.624
E34 [14], 333.3 nM	–	0.503
E34 [14], 1000 nM	–	0.414
E34 [14], 3000 nM	–	0.501
E57 [3], 4.1 nM	2.53	–
E57 [3], 12.3 nM	2.05	–
E57 [3], 37 nM	3.22	–
E57 [3], 111.1 nM	7.13	–
E57 [3], 333.3 nM	6.28	–
E57 [3], 1000 nM	6.68	–
E57 [3], 3000 nM	8.42	–
E57 [10], 4.1 nM	–	0.623
E57 [10], 12.3 nM	–	0.679
E57 [10], 37 nM	–	0.463
E57 [10], 111.1 nM	–	0.205
E57 [10], 333.3 nM	–	0.123
E57 [10], 1000 nM	–	0.12
E57 [10], 3000 nM	–	0.141
FT3469 [4], 4.1 nM	2.22	–
FT3469 [4], 12.3 nM	1.25	–
FT3469 [4], 37 nM	1.74	–
FT3469 [4], 111.1 nM	2.57	–
FT3469 [4], 333.3 nM	2.83	–
FT3469 [4], 1000 nM	3.25	–
FT3469 [4], 3000 nM	2.99	–
FT3469 [11], 4.1 nM	–	0.874
FT3469 [11], 12.3 nM	–	0.885
FT3469 [11], 37 nM	–	0.808
FT3469 [11], 111.1 nM	–	0.646
FT3469 [11], 333.3 nM	–	0.588
FT3469 [11], 1000 nM	–	0.506
FT3469 [11], 3000 nM	–	0.544
